Source: article PMC4055232 (Malaria Journal, 2014)
Like-named read-outs stand apart in the source and are kept apart here. Marks after values point to notes of the source that are not given here.

What was measured:
[1] = Pharmacokinetics of probe drug cocktail (bupropion, midazolam) and their metabolites before and after QHS-PQ; assay type: in vivo, human; details: for Tmax / T max: value (range); for Geometric mean ratio (90% CI) of AUC 0-t /dose / Geometric mean ratio (90% CI) of C max / Geometric mean ratio (90% CI) of CL/F / Geometric mean ratio (90% CI) of MRT: 2-day (after QHS-PQ) versus 1-day (day -14); for AUC 0-t /dose: mean ± sd
Description: The chromatography was performed at 22°C. The mobile phase consisted of B (acetonitrile) and A (0.1% formic acid in water), which increased linearly from 20% B to 90% B during 7 min before column re-equilibration at a flow rate of 0.3 mL/min.
Plasma samples were subjected to a protein precipitation extraction process. A 100 μL aliquot of human plasma was mixed with 25 μL of acetonitrile and 200 μL of IS (1 μM of alprazolam, prepared in acetonitrile). The mixture was mixed and centrifuged at 3,000 g for 10 min. Aliquots (20 μL) of the solution were injected onto LC-MS analysis. […] This mixture was treated as above. […] Plasma samples were diluted with blank plasma and reanalysed when the concentration of any analyte was higher than the upper limit of quantification.
Venous blood samples (2 mL) for analysis of probe drugs and their metabolites were taken from an indwelling intravenous catheter at 0, 0.25, 0.75, 1.5, 2.0, 3.0, 4.0, 5.0, 7.0, 11.0, 24.0, 36.0, and 48.0 hours.
(§1) The peak plasma concentration (Cmax) and time-to-peak concentration (Tmax) were obtained from experimental observations. The other pharmacokinetic parameters were analysed by non-compartmental model using the program TOPFIT (version 2.0; Thomae GmbH, Germany). The area under the plasma concentration-time curve (AUC o-t ) was calculated using the linear trapezoidal rule to approximately the last point. The mean residence time (MRT) was obtained by dividing the area under the first moment-time curve (AUMC 0-t ) by the area under the curve (AUC 0-t ). Total oral body clearance (CL/F) was calculated as dose/AUC 0-t .
(§2) Results were expressed as mean ± SD. The two-tailed t-test was used for paired comparison of the pharmacokinetic parameters between the single dose and multiple doses after logarithmic transformation. Geometric mean ratios with 90% confidence intervals (CIs) were calculated after log transformation of within-subject data. The comparison of Tmax for the different treatment groups was performed using the Wilcoxon signed-rank test. The acceptable level of significance was established at P < 0.05 or P < 0.01.

[2] = Pharmacokinetics of QHS and its phase I/II metabolites in plasma after oral QHS-PQ (Artequick); details: for AUC 0-t /dose / Cmax / MRT / CL/F: mean ± sd; for Cmax / MRT / Tmax: in vivo; for Cmax: C max; for Tmax: T max
Description: The chromatography was performed at 22°C. The mobile phase consisted of acetonitrile and 5 mM aqueous ammonium acetate containing 0.1% (v/v) formic acid, delivered at a flow rate of 0.35 mL/min. The gradient chromatographic conditions were shown in the previous report. The autosampler was set at 4°C.
Plasma samples were subjected to a protein precipitation extraction process, which was performed on ice. A 100 μL aliquot of human plasma was mixed with 25 μL of acetonitrile and 200 μL of IS (1 μM of ARM, prepared in acetonitrile). The mixture was mixed and centrifuged at 3,000 g for 10 min. Aliquots (20 μL) of the solution were injected onto LC-MS analysis. […] This mixture was treated as above.
Plasma was separated by centrifugation at 3,000 g for 10 min at 4°C. The plasma was stored at -80°C until analysis.
as §1, §2

[3] = Bench-top stability of QC samples in human plasma on ice; assay type: in vitro ADME; details: human plasma on ice for at least 2 hours; difference < 15%
CAR1/3 = details: cited from earlier work
PXR = details: cited from earlier work
[4] = cited from earlier work
[5] = human, plasma, oral, row '1-day': probe cocktail before QHS-PQ (day -14)
[6] = human, plasma, oral, row '1-day': probe cocktail before QHS-PQ (day -14), read-out: CL/F (converted)
[7] = human, plasma, oral, row '1-day': probe cocktail before QHS-PQ (day -14), read-out: MRT
[8] = human, plasma, oral, row '2-day': probe cocktail after second dose of QHS-PQ
[9] = human, plasma, oral, row '2-day': probe cocktail after second dose of QHS-PQ, read-out: CL/F (converted)
[10] = human, plasma, oral, row '2-day': probe cocktail after second dose of QHS-PQ, read-out: MRT
[11] = human, po, 2-day oral QHS-PQ, value (range)
[12] = listed as '1-day': oral probe cocktail (bupropion 75 mg, midazolam 15 mg) on day -14, before QHS-PQ
[13] = listed as '1-day': probe cocktail before QHS-PQ (day -14)
[14] = listed as '2-day': probe cocktail 1 hour after second oral dose of QHS-PQ (day 2)
[15] = listed as '2-day': probe cocktail after second dose of QHS-PQ

| Compound | Cmax [1, 5] | Tmax [1, 5] | CL/F [1, 6] | MRT [1, 7] | Cmax [1, 8] | Tmax [1, 8] | CL/F [1, 9] | MRT [1, 10] | Cmax ([2]; human, po, 1-day oral QHS-PQ) | Cmax ([2]; human, po, 2-day oral QHS-PQ) | MRT ([2]; human, po, 1-day oral QHS-PQ) | MRT ([2]; human, po, 2-day oral QHS-PQ) | Tmax [2, 11] | stability in plasma [3] | Geometric mean ratio (90% CI) of AUC 0-t /dose [1] | Geometric mean ratio (90% CI) of C max [1] | Geometric mean ratio (90% CI) of CL/F [1] | Geometric mean ratio (90% CI) of MRT [1] | AUC 0-t /dose [1, 12] | CL/F [1, 13] | further results |
| --- | --- | --- | --- | --- | --- | --- | --- | --- | --- | --- | --- | --- | --- | --- | --- | --- | --- | --- | --- | --- | --- |
| CC(NC(C)(C)C)C(=O)c1cccc(Cl)c1 (centres unmarked) [BUP, Bupropion] | 328 ± 181 nM | 2.1 h | 62.2 mL/min/kg | 6.8 ± 1.9 h | 306 ± 147 nM | 2.5 h | 63 mL/min/kg | 6.1 ± 1.7 h | – | – | – | – | – | – | – | – | – | – | – | – | – |
| C[C@@H]1CC[C@H]2[C@@H](C)C(=O)O[C@@H]3O[C@@]4(C)CC[C@@H]1[C@]32O4 [DeoxyQHS, Deoxyartemisinin] | – | – | – | – | – | – | – | – | 71 ± 46.1 nM | 55.6 ± 33.3 nM | 7.1 ± 0.6 h | 6.2 ± 1.5 h | 2.3 h | stable | – | – | – | – | – | – | AUC 0-t /dose ([2]; 1-day (first oral dose of QHS-PQ, 1.8 mg/kg QHS plus 10.6 mg/kg piperaquine), 14 healthy Chinese, plasma): 0.09 ± 0.05** h·kg·L^-1; T max ([2]; 1-day oral QHS-PQ, value (range)): 2.2 (1.25, 4.0) h; AUC 0-t /dose ([2]; 2-day (second daily oral dose of QHS-PQ)): 0.06 ± 0.04** h·kg·L^-1; Geometric mean ratio (90% CI) of AUC 0-t /dose ([2]; 2-day versus 1-day oral QHS-PQ): 0.68 (0.58, 0.79)**; Geometric mean ratio (90% CI) of AUC M /AUC QHS ([2]; 2-day versus 1-day oral QHS-PQ): 1.18 (0.97, 1.43); Geometric mean ratio (90% CI) of C max ([2]; 2-day versus 1-day oral QHS-PQ): 0.78 (0.69, 0.89)*; Geometric mean ratio (90% CI) of CL/F ([2]; 2-day versus 1-day oral QHS-PQ): 1.68 (1.45, 1.95)**; Geometric mean ratio (90% CI) of MRT ([2]; 2-day versus 1-day oral QHS-PQ): 0.89 (0.79, 0.99); change of Tmax and MRT after repeated drug dosing ([2]; P > 0.05): did not change; Tmax ([2]; human, po, 1-day oral QHS-PQ, value (range)): 1.3 to 4 h; decrease in AUC 0-t after multiple oral doses ([2]; in 13 out of 14 subjects, range 20.3-71.8%): 34.7%; decrease of metabolic capability AUCdeoxy-QHS/AUCQHS after the second dose ([2]; in four subjects): 41.6%; increase of metabolic capability AUCdeoxy-QHS/AUCQHS after the second dose ([2]; in six subjects): 1.6 fold; increase of CL/F after the second dose ([2]; second versus first oral dose of QHS-PQ): 1.7 fold; activity at CAR1/3 (CAR1/3): agonist; activity at PXR (PXR): agonist |
| Cc1ncc2n1-c1ccc(Cl)cc1C(c1ccccc1F)=NC2 [MDZ, midazolam] | 206 ± 115 nM | 1.3 h | 18.2 mL/min/kg | 4.1 ± 0.7 h | 305 ± 115 nM | 0.8 h | 11.7 mL/min/kg | 4.2 ± 0.7 h | – | – | – | – | – | – | – | – | – | – | – | – | – |
| OCc1ncc2n1-c1ccc(Cl)cc1C(c1ccccc1F)=NC2 [OH-MDZ, α-hydroxymidazolam] | – | – | – | – | – | – | – | – | – | – | – | – | – | – | 4.99 (4.66, 5.33)** | 2.95 (2.44, 3.56)** | 0.19 (0.18, 0.21)** | 1.14 (1.01, 1.28) | 0.32 ± 0.09 kg·h/L | 55.2 ± 14 mL/min/kg | Cmax [1, 13]: 82.3 ± 50.3 nM; MRT [1, 13]: 3.7 ± 1.0 h; T max [1, 13]: 1.1 (0.3, 2.0) h; AUC 0-t /dose [1, 14]: 1.60 ± 0.26** h·kg·L^-1; CL/F [1, 15]: 10.7 ± 1.83 mL/min/kg; Cmax [1, 15]: 243 ± 82 nM; MRT [1, 15]: 4.2 ± 0.5 h; T max [1, 15]: 1.5 (0.8, 3.0) h |
| C[C@@H]1CC[C@H]2[C@@H](C)C(=O)O[C@@H]3O[C@@]4(C)CC[C@@H]1[C@]32OO4 [QHS, Artemisinin, reference compound] | – | – | – | – | – | – | – | – | 304 ± 192 nM | 221 ± 118 nM | 3.2 ± 0.9 h | 2.9 ± 0.9 h | 1.4 h | stable | – | – | – | – | – | – | CL/F ([2]; 1-day oral QHS-PQ, dose/AUC0-t): 164 ± 138 mL/min/kg; change of Cmax, Tmax and MRT after repeated drug dosing ([2]; P > 0.05): did not change; inter-individual variability (%CV) for AUC 0-t ([2]; after the first dose, range 6.9-122.7%): 43.5%; CL/F ([2]; human, plasma, po, CL/F, 1-day oral QHS-PQ, dose/AUC0-t): 163 mL/min/kg; CL/F ([2]; human, plasma, po, CL/F, 2-day oral QHS-PQ): 277 mL/min/kg; decrease in AUC 0-t, second oral dose compared with the first dose ([2]; oral QHS-PQ, two consecutive days): 35.2%; dose-normalized AUC, reported range ([4]; healthy subjects and patients who received 500 mg of QHS): 0.06 to 0.31 kg·h/L; dose-normalized AUC, reported range ([4]; infected children, dose […]): 0.33 to 0.49 kg·h/L |
| (±)-hydroxybupropion [OH-BUP] | – | – | – | – | – | – | – | – | – | – | – | – | – | – | 2.05 (1.83, 2.30)** | 1.65 (1.51, 1.82)** | 0.49 (0.43, 0.55)** | 1.04 (1.00, 1.07) | 3.98 ± 1.45 kg·h/L | 4.83 ± 1.83 mL/min/kg | Cmax [1, 13]: 518 ± 162 nM; MRT [1, 13]: 19.4 ± 1.4 h; T max [1, 13]: 5.2 (3.0, 11.0) h; AUC 0-t /dose [1, 14]: 8.22 ± 3.43** h·kg·L^-1; CL/F [1, 15]: 2.33 ± 0.83 mL/min/kg; Cmax [1, 15]: 857 ± 245 nM; MRT [1, 15]: 20.2 ± 1.5 h; T max [1, 15]: 7.6 (3.0, 24.0) h |
